{"source": "patent US20260125730A1", "about": "“A NEW INDUCER FOR METHANOL-FREE PICHIA PASTORIS EXPRESSION SYSTEM” (priority 2022, published 2026)", "test_system": "AOX1 promoter", "experiment": "Induction of the AOX1 promoter in recombinant P. pastoris cells carrying the azurin gene; western blot of culture broth with anti-azurin antibody", "format": "cell-based, Pichia pastoris", "excerpt": "FIG. 1B. Relative expression levels of azurin protein in culture broths\nRecombinant yeast cells were obtained by performing steps A, B and C in the study in which the recombinant DNA obtained by Inserting the azurin gene of Pseudomonas aeruginosa into pPICZαA was integrated into the genome of P. pastoris X33 strain (https://pubmed.ncbi.nlm.nih.gov/33346686/).\nIn this Invention, recombinant Pichia pastoris cells which carry the “azurin protein” gene (as a reference gene) from Pseudomonas aeruginosa in their genomes and can perform the extracellular production of this protein were used.\nSaid protein gene is located in the downstream of the AOX1 promoter in the genome of P. pastoris cells. If the AOX promoter is induced, expression of this gene inserted into the genome can be achieved. […] Methanol or farnesol was added to the culture medium In predetermined amounts every 24 hours.", "data": [{"compound": "CC(C)=CCCC(C)=CCCC(C)=CCO", "note": "[farnesol]", "values": [{"measurement": "protein expression level among the farnesol groups", "setting": "240 farnesol group compared with 120 and 480 μL/L, 72 hours, FIG. 1B", "value": "highest protein expression level"}, {"measurement": "protein expression level relative to the 0.5% (v/v) methanol-induced group", "setting": "240 farnesol group, P<0.05, FIG. 1B", "value": "higher than that of the 0.5% (v/v) methanol-induced group"}, {"measurement": "extracellular protein (azurin) production on induction of the promoter", "setting": "farnesol 120 μL/L, 240 μL/L and 480 μL/L added every 24 hours, sorbitol as carbon source, 30° C., 280 rpm, 72 hours, FIG. 1A", "value": "protein production also occurred"}]}, {"compound": "CO", "note": "[methanol]", "values": [{"measurement": "protein (azurin) production on induction of the promoter", "setting": "methanol 0.5% v/v (control inducer) added every 24 hours, sorbitol as carbon source, 30° C., 280 rpm, 72 hours, FIG. 1A", "value": "protein production"}]}]}
